Results on 14 compounds are retold here after patent US5281608A, “Substituted tetrahydropyrido[3',4':4,5]-pyrrolo[3,2-c]quinolines” (American Home Products Corporation, priority 1992, dated 1994).

Experiment [1] has as its system rabbit articular chondrocytes (IL-1-induced neutral protease release). Kind of experiment: Inhibition of IL-1-induced release of neutral protease from rabbit articular chondrocytes. It counts as cell-based, rabbit (Male New Zealand White). Conditions: Oryctolagus cuniculus, Chondrocyte, human IL-1 stimulated, 24 h. How it is done: The ability of the compounds of the invention to inhibit interleukin 1 is measured by the ability of the test compounds to inhibit the IL-1-induced release of neutral protease from rabbit articular chondrocytes.
Male New Zealand White rabbits are anesthetized with 50 mg/kg of ketamine (i.m.) and killed by an intracardiac injection of 3 mls. of Nembutal. The knee joints of both legs are resected and the articular surfaces are exposed. Cartilage slices are obtained using a scalpel and are placed in a tissue culture dish (100 mm diameter) containing 10 mls of Hank's balanced salt solution (HBSS). The chondrocytes within the cartilage slices are then liberated by a series of enzyme digestions. The slices are incubated for 10 minutes at 37° C. in 0.05% hyaluronidase (Sigma H-3884), rinsed with HBSS and incubated with 0.2% trypsin (Sigma T-2395) for 10 minutes at 37° C. The slices are rinsed again and incubated for 10 minutes at 37° C. with 1.2% collagenase (Sigma C-5138). The slices are then rinsed again with HBSS and resuspended in 10 ml of Ham's F-12 medium containing 10% fetal bovine calf serum (FCS) and 0.2 % collagenase and incubated overnight at 37° C. in a 5% CO2 incubator. The next day, the medium containing the digested cartilage fragments and liberated chondrocytes is transferred to a 15 ml centrifuge tube and the cells are collected by centrifugation and washed twice and resuspended in Ham's F-12 medium. The cells are then plated into 24-well tissue culture plates (2×10^5 cells/well) and incubated at 37° C. until confluent (usually 4-6 days).
The confluent chondrocytes are rinsed twice with serum-free Ham's F-12 medium and 1 ml is added to each well. Fifty μl of purified human IL 1 (100 Units/ml; Genzyme Corporation, Boston, Mass.) is then added to stimulate these cells to secrete neutral protease. To measure drug effects, the cells are treated with test compound 10 minutes prior to addition of IL-1. The standard screening dose is 10 μM. Twenty-four hours after IL-1 stimulation, supernatant fluids are collected and assayed for neutral protease activity.
The neutral protease activity of chondrocyte supernatant fluids is determined by their ability to degrade an insoluble protease substrate, azocoll (Sigma). Supernatants are treated for 10 minutes at room temperature with 350 μM p-aminophenylmurcuric acetate to activate the latent enzyme. Three hundred μl of supernatant is then mixed with 500μl of a 20 mg/ml suspension of azocoll and incubated at 37° C. for 18-24 hours with gentle rocking. The mixtures are centrifuged and the amount of substrate hydrolyzed is determined by measuring the absorbance of the supernatant at 520 nm.
Drug effects are calculated as the % change in enzyme activity (absorbance)by supernatants from drug-treated chondrocytes relative to enzyme activity of supernatants from vehicle-treated chondrocytes as follows: [formula]

The test system of experiment [2] is rat limb bones (PTH-induced bone resorption). Nature of the experiment: Bone resorption assay (45Ca release from rat limb bones), PTH-induced. As to conditions: 48 h; for IC50: Rattus norvegicus, read-out: Inhibition of Bone Resorption, PTH-Induced (IC50). It counts as cell-based, rat (Sprague-Dawley CD). As for the experimental part:
(§1) The ability of the compounds of the invention to modify the process of bone resorption is evaluated in the bone resorption assay measuring ^45 Ca release from rat limb bones.
(§2) Limb bone preparation. Timed pregnant Sprague-Dawley CD® rats (Charles River) are administered 100 μCi ^45 CaCl2 (NEN calcium -45 NEZ-013) in 100 μl of 0.9% saline, subcutaneously, on day 18 of gestation. The rats are sacrificed the following day by CO2 asphyxiation. The fetuses are removed and the right forelimbs excised and placed in a Petri dish containing ice cold explant medium consisting of modified BGJb -Fitton Jackson media (custom formulation, Gibco No. 78-0088) adjusted to pH 7.3 to which 10 mM TES is added. The modified BGJb media is obtained without salts, glucose or bicarbonate and is supplemented before use with 0.1 mM MgCl2, 1.25 mM CaCl2, 5.3 mM KCl, 0.7 mM MgSO4, 130 mM NaCl, 1.0 mM NaH2 PO4, 1 g/L glucose, 50 mg/L Na acetate and 100 U/ml penicillin G. The medium is sterilized by passage through a 0.2 μ M filter (Nalge). Under a dissecting microscope, the bones are gently cleaned of adherent tissue and the cartilaginous ends removed. Incubation and drug treatment. The midshafts are placed, individually, on 3×3 mm squares of filter paper (Gelman GN-6 metricel filters; […] pore size) which rest on stainless steel screens in wells of 24-well culture plates containing 0.5 mL of preincubation medium. The preincubation medium is brought to 37° C. prior to transfer of bones. The preincubation medium consists of the modified BGJb medium (with salts and glucose as above), pH 7.3, containing 29 mM NaHCO3. After incubation for 18-24 hours at 37° C. in 5% CO2, the bones are transferred on their screen/filter paper supports to new plates containing, in a total volume of 0.5 mL/well at 37° C., the test compound diluted in preincubation medium supplemented with 15% heat inactivated horse serum (Gibco No. 230-6050), pH 7.3, with a bone resorption stimulating agent (e.g. parathyroid hormone [PTH] or interleukin-1 [IL-1]). For compounds that require nonaqueous solvents, dilutions are made from the appropriate stock solution with medium. In these instances, basal and bone resorption stimulated controls exposed to an equivalent concentration of the vehicle are included. An additional group of bones that have been subjected to boiling for 1 hour (kill control) are used to establish background, non cell mediated, exchange of ^45 Ca. The right ulna and radius from each fetus are used. Both bones are subjected to the same treatment and each treatment group consists of bones from 4 or more fetuses. Treatments are randomly assigned using a preclinical statistics program (PS-ALLOC). After a 48 hour incubation at 37° C. in 5% CO2, the bones are removed from the medium and extracted in 0.5 mL of 0.1N HCl for 1 or more days. Duplicate 150 μL aliquots of the incubation medium and the bone extract are analyzed for ^45 Ca radioactivity in 5 mL of liquid scintillation cocktail.
(§3) The percentage of bone ^45 Ca released into the medium is determined as follows: [formula] Results are normally expressed as the ratio of the percent ^45 Ca release of the experimental group versus the appropriate vehicle control, or as an IC50 value.

The test system of experiment [3] is rat limb bones (IL-1 induced bone resorption). Kind of experiment: Bone resorption assay (45Ca release from rat limb bones), IL-1 induced. It counts as cell-based, rat (Sprague-Dawley CD). Conditions: 48 h; for IC50: Rattus norvegicus, read-out: Inhibition of Bone Resorption, IL-1 Induced (IC50). How it is done: as §1, §2, §3

Structures are written as SMILES. pIC50: −log10 of the molar value. Converted amounts (≈) assume the structure as drawn.

With `CS(=O)(=O)c1ccc(N2CCc3[nH]c4c(cnc5cc(Cl)ccc54)c3C2)cc1` [Example 1, 3-Chloro-8,9,10,11-tetrahydro-8-[4-(methylsulfonyl)phenyl]-7H-pyrido[3',4':4,5]pyrrolo[3,2-c]quinoline], the inhibition at 10 µM in experiment [1] stood at 40%. In addition, in experiment [2], the “Inhibition of Bone Resorption, PTH-Induced (activity in words)” value is reported as “Active” and the IC50 turned out to be 0.633 µg/mL (≈ 1.54 µM). Besides, in experiment [3], the “Inhibition of Bone Resorption, IL-1 Induced (activity in words)” value is reported as “Active” and the IC50 is 6.84 µg/mL (≈ 16.6 µM).

In turn, `N#Cc1ccc(N2CCc3[nH]c4c(cnc5cc(Cl)ccc54)c3C2)cc1` [Example 3, 4-(3-Chloro-8,9,10,11-tetrahydro-7H-pyrido[3',4':4,5]-pyrrolo[3,2-c]quinolin-8-yl)benzonitrile] yielded an inhibition at 10 µM in experiment [1] of 22%.

For the compound `O=C(c1cccs1)N1CCc2[nH]c3c(cnc4cc(Cl)ccc43)c2C1` [Example 4, 3-Chloro-8,9,10,11-tetrahydro-8-(2-thienylcarbonyl)-7H-pyrido[3',4':4,5]pyrrolo[3,2-c]quinoline], the inhibition at 0.1 µM in experiment [1] (dose 0.1 μM) is 14%. Moreover, the inhibition at 1 µM in experiment [1] (dose 1 μM) was 20%. Also, in experiment [1], 10 µM produced 64% inhibition and the pIC50 was 5.14. The “Inhibition of Bone Resorption, IL-1 Induced (activity in words)” value in experiment [3] is listed as “Active at <5 μg/ml”.

`N#Cc1ccc(C(=O)N2CCc3[nH]c4c(cnc5cc(Cl)ccc54)c3C2)cc1` [Example 5, 3-Chloro-8-(4-cyanobenzoyl)-8,9,10,11-tetrahydro-7H-pyrido[3',4':4,5]pyrrolo[3,2-c]quinoline] yielded an inhibition at 10 µM in experiment [1] of 28%.

With `O=C(Nc1ccccc1)N1CCc2[nH]c3c(cnc4cc(Cl)ccc43)c2C1` [Example 7, 3-Chloro-7,9,10,11-tetrahydro-N-phenyl-8H-pyrido-[3',4':4,5]pyrrolo[3,2-c]quinoline-8-carboxamide], 10 µM produced 21% inhibition in experiment [1].

`O=C(c1cc2ccccc2s1)N1CCc2[nH]c3c(cnc4cc(Cl)ccc43)c2C1` [Example 10, 8-(Benzo[b]thien-2-ylcarbonyl)-3-chloro-8,9,10,11-tetrahydro-7H-pyrido[3',4':4,5]pyrrolo[3,2-c]quinoline] displayed an inhibition at 10 µM in experiment [1] of 24%. Besides, in experiment [3], the “Inhibition of Bone Resorption, IL-1 Induced (activity in words)” value is on record as “Active” and the IC50 is 0.067 µg/mL (≈ 0.16 µM).

For `O=C(NC(=O)N1CCc2[nH]c3c(cnc4cc(Cl)ccc43)c2C1)c1ccccc1` [Example 13, N-Benzoyl-3-chloro-7,9,10,11-tetrahydro-8H-pyrido-[3',4':4,5]pyrrolo[3,2-c]quinoline-8-carboxamide], in experiment [2], the “Inhibition of Bone Resorption, PTH-Induced (activity in words)” value was “Active” and the IC50 is 0.944 µg/mL (≈ 2.33 µM). Moreover, in experiment [3], the “Inhibition of Bone Resorption, IL-1 Induced (activity in words)” value was “Active” and the IC50 came out at 1.71 µg/mL (≈ 4.22 µM).

As to `S=C(Nc1ccccc1)N1CCc2[nH]c3c(cnc4cc(Cl)ccc43)c2C1` [Example 14, 3-Chloro-7,9,10,11-tetrahydro-N-phenyl-8H-pyrido-[3',4':4,5]pyrrolo[3,2-c]quinoline-8-carbothioamide], in experiment [2], the “Inhibition of Bone Resorption, PTH-Induced (activity in words)” value is listed as “Active” and the IC50 worked out at 1.2 µg/mL (≈ 3.05 µM). In addition, in experiment [3], the “Inhibition of Bone Resorption, IL-1 Induced (activity in words)” value is “Active” and the IC50 came out at 1.21 µg/mL (≈ 3.08 µM).

For `CCOC(=O)c1ccc(NC(=O)N2CCc3[nH]c4c(cnc5cc(Cl)ccc54)c3C2)cc1` [Example 15, 4-[[(3-Chloro-7,9,10,11-tetrahydro-8H-pyrido[3',4':4,5]pyrrolo-[3,2-c]quinoline-8-yl)carbonyl]amino]benzoic acid ethyl ester], in experiment [2], the “Inhibition of Bone Resorption, PTH-Induced (activity in words)” value is reported as “Active” and the IC50 was found to be 5.5 µg/mL (≈ 12.3 µM).

As for `O=C(NCc1ccccc1)N1CCc2[nH]c3c(cnc4cc(Cl)ccc43)c2C1` [Example 16, 3-Chloro-7,9,10,11-tetrahydro-N-(phenylmethyl)-8H-pyrido-[3',4':4,5]pyrrolo[3,2-c]quinoline-8-carboxamide], in experiment [2], the “Inhibition of Bone Resorption, PTH-Induced (activity in words)” value was “Active” and the IC50 was determined as 2.52 µg/mL (≈ 6.45 µM). Also, in experiment [3], the “Inhibition of Bone Resorption, IL-1 Induced (activity in words)” value is on record as “Active” and the half-maximal inhibitory concentration (IC50) came to 6.22 µg/mL (≈ 15.9 µM).

Regarding `O=C(NC(=S)N1CCc2[nH]c3c(cnc4cc(Cl)ccc43)c2C1)c1ccccc1` [Example 17], in experiment [2], the “Inhibition of Bone Resorption, PTH-Induced (activity in words)” value was “Active” and the IC50 turned out to be 1.16 µg/mL (≈ 2.76 µM). Moreover, in experiment [3], the “Inhibition of Bone Resorption, IL-1 Induced (activity in words)” value is “Active” and the IC50 amounted to 1.65 µg/mL (≈ 3.92 µM).

`S=C(NCc1ccccc1)N1CCc2[nH]c3c(cnc4cc(Cl)ccc43)c2C1` [Example 18, 3-Chloro-7,9,10,11-tetrahydro-N-(phenylmethyl)-8H-pyrido-[3',4':4,5]pyrrolo[3,2-c]quinoline-8-carbothioamide]: in experiment [3], the “Inhibition of Bone Resorption, IL-1 Induced (activity in words)” value is listed as “Active” and the IC50 is 2.39 µg/mL (≈ 5.87 µM).

With `COc1cccc(NC(=O)N2CCc3[nH]c4c(cnc5cc(Cl)ccc54)c3C2)c1` [Example 20, 3-Chloro-7,9,10,11-tetrahydro-N-(3-methoxyphenyl)-8H-pyrido-[3',4':4,5]pyrrolo[3,2-c]quinoline-8-carboxamide], in experiment [2], the “Inhibition of Bone Resorption, PTH-Induced (activity in words)” value was “Active” and the IC50 came to 0.059 µg/mL (≈ 0.145 µM). Further, in experiment [3], the “Inhibition of Bone Resorption, IL-1 Induced (activity in words)” value is listed as “Active” and the IC50 worked out at 0.0088 µg/mL (≈ 0.0216 µM).

With `COc1ccc(S(=O)(=O)N2CCc3[nH]c4c(cnc5cc(Cl)ccc54)c3C2)cc1` [Example 21, 3-Chloro-8,9,10,11-tetrahydro-8-[(4-methoxyphenyl)sulfonyl]-7H-pyrido[3',4':4,5]pyrrolo[3,2-c]quinoline], in experiment [3], the “Inhibition of Bone Resorption, IL-1 Induced (activity in words)” value was “Active” and the IC50 amounted to 8.48 µg/mL (≈ 19.8 µM).

What is called inhibition is the share of the control response that was lost under treatment. By IC50 is commonly meant the midpoint of a concentration-inhibition curve. By pIC50 is commonly meant −log10 of the IC50, conventionally taken in molar units. A low value points to a high IC50.
